Laboratory results: publication PMC12446422, “Breastfeeding on ART and a closer look at drug transfer to HIV-exposed uninfected infants” (Scientific Reports, 2025)
“And” between values parts separate entries of the source, which are not always exact repeats. Equal values may be shown once. “Also recorded” adds a separate entry of the source.

Experiments:
[1] = Relative infant dose (RID): infant ART level divided by mother's ART level; format: in vivo, human; conditions: for < 10% RID: target RID expressed as infant serum level
Protocol: (§1) For all HIV-exposed children visits, clinical examinations and blood sampling took place at the age of one, four and 18 to 24 months. […] Routine blood tests included blood cell counts with differentials, transaminases, bilirubin at the first presentation, HIV-PCR and at 18–24 months or after cessation of breastfeeding HIV serology was performed. Primary outcome was infant serum drug exposure; breast-milk concentrations served as supportive secondary data. Serum samples of mothers and infants were drawn during visits to our clinic. Neither the timing of maternal drug intake and breastfeeding, nor the timing of the blood samples, was standardized. Therefore, no pharmacokinetic calculations could be performed. When available, additional serum samples of infants or mothers and a breast milk sample were sent to the Drug monitoring laboratory, Division of Infectious Diseases, Department of Internal Medicine II, University of Würzburg Medical Center, Germany. […] To assess the infant’s ART drug exposure upon breastfeeding, we calculated the relative infant dose (RID). The RID is a commonly used tool for assessing drug exposure and is calculated by dividing the infant’s ART level by the mother’s ART level, expressed as a decimal or percentage[13],[14]. All information for this study was derived from routine clinical exams and was, when available, retrospectively extracted from the patients’ medical records. […] For analysis, the HEU children were divided in 2 groups: HEU breastfed infants (n = 8) and HEU formula-fed infants (n = 62). […] All research was performed in accordance with relevant guidelines and regulations. Data collection and analysis were carried out in Microsoft Excel and R.
The RID is used for clinical risk assessment, with a target RID of below 10% indicating a low risk of adverse drug reactions in infants[16],[17].

[2] = ART drug monitoring in serum of breastfed HEU infants (HPLC-UV); format: in vivo, human; conditions: for Infant serum level, in words: breastfed infants, against detection limit or adult target range; for concentration at 14 days (infant age) / concentration at 4 months (infant age) / concentration at 1 month (infant age) / concentration at 6 months (infant age): human; for concentration at 6 months (infant age): 6 months of age, breastfeeding exclusive, partial or stopped
Protocol: (§2) HIV-exposed infants were followed at the Pediatric Infectious Diseases Outpatient Clinic at the Department of General Pediatrics according to the current German and European guidelines for HIV-exposed or infected children[6],[11]. MLWH were followed at the department of Infection Medicine, Medical Service Centre Clotten, Freiburg. […] Two mothers (infants 2 and 4) were treated with dolutegravir 50 mg (DTG), abacavir 600 mg (ABC), and lamivudine 300 mg (3TC) once daily. The […] of infant 3 received tenofovir alafenamide/emtricitabine 25/200 mg (TAF/FTC) once daily in combination with nevirapine 200 mg (NVP) twice daily.
as §1

[3] = ART drug monitoring in breast milk (HPLC-UV); format: in vivo, human; conditions: oral, read-out: ART level in breast milk (BM); for concentration at 6 months (infant age): human one
Protocol: as §2, §1

[4] = ART drug monitoring in maternal serum (HPLC-UV); format: in vivo, human; conditions: for Maternal serum level, in words: against adult target range
Protocol: as §2, §1

[5] = statement in discussion; cited from earlier work
HEU breastfed infants = assay: Absolute neutrophil count of ART-exposed HEU breastfed infants; format: in vivo, human
Protocol: as §1
ART serum levels above a 10% RID of the adult target range and neutropenia <1,0 (1000/µl) are indicated in bold.

[6] = statement in discussion; cited from earlier work; remark: listed apart in the source
[7] = target range for drug trough levels in adults; cited from earlier work
[8] = 14 days, breastfed infant exposed to maternal ART, ZDV prophylaxis given
[9] = all occasions, infant serum below detection, infant 4 (DTG), 8 (RAL), 5 (DRV/r), 7 (RPV)
[10] = child, infant 1 (RPV), infant 3 (nevirapine), infant 2 (DTG)
[11] = serum, other: breastfeeding (maternal ART), breastfed infant (entry one), read-out: ART level in infant serum (IS)
[12] = serum, other: breastfeeding (maternal ART), read-out: ART level in infant serum (IS)

Row | < 10% RID [1] | concentration at 6 months (infant age) [3] | concentration at 1 month (infant age) ([3]; human three) | RID (relative infant dose) [1, 9] | RID (relative infant dose) [1, 10] | concentration at 1 month (infant age) [2, 11] | concentration at 6 months (infant age) [2, 12] | Structure (SMILES) | Infant serum level, in words [2] | concentration at 4 months (infant age) ([3]; human two) | Neutro_abs (absolute neutrophil count) (HEU breastfed infants; 1 month) | Neutro_abs (absolute neutrophil count) (HEU breastfed infants; 4 months) | Neutro_abs (absolute neutrophil count) (HEU breastfed infants; 6 months) | Neutro_abs (absolute neutrophil count) (HEU breastfed infants; [8]) | Lipophilicity [6] | Adult trough level [7] | Maternal serum level, in words [4] | Neutro_abs (absolute neutrophil count) (HEU breastfed infants; 18 months) | further results
1 | < 400 ng/mL | 0.68 µg/mL | < 0.05 µg/mL | < 10% | 240% | < 0.05 µg/mL | – | C[C@@H]1CCO[C@H]2Cn3cc(C(=O)NCc4ccc(F)cc4F)c(=O)c(O)c3C(=O)N12 [DTG, dolutegravir] | – | 0.648 µg/mL | – | – | – | 3,53 1000/ µl | moderately lipophilic | 250 to 4000 ng/mL | within the therapeutic range | 3,25 1000/ µl | concentration at 4 months (infant age) ([4]; human two, serum, oral, read-out: ART level in maternal serum (MS)): 2.41 µg/mL
2 | < 670 ng/mL | – | – | – | 171% | 1.21 µg/mL | 0.649 µg/mL | Cc1ccnc2c1NC(=O)c1cccnc1N2C1CC1 [NVP, nevirapine] | – | – | 1,53 1000/ µl | 1,20 1000/ µl | 3,33 1000/ µl | – | highly lipophilic | 1600 to 6700 ng/mL | – | 1,32 1000/ µl | concentration at 4 months (infant age) ([2]; serum, other: breastfeeding (maternal ART), breastfed infant (entry two), read-out: ART level in infant serum (IS)): 1.15 µg/mL; concentration at 6 months (infant age) ([4]; human one, serum, oral, read-out: ART level in maternal serum (MS)): 3.93 µg/mL
3 | < 20 ng/mL | < 0.05 µg/mL | < 0.05 µg/mL | < 10% | 633% | – | < 0.05 µg/mL | Cc1cc(/C=C/C#N)cc(C)c1Nc1ccnc(Nc2ccc(C#N)cc2)n1 [RPV, rilpivirine] | below the detectable range; also recorded: below the range of detection; also recorded: above the adult target range | – | – | 1,80 1000/ µl and 1,15 1000/ µl and 1,05 1000/ µl | – | 2,25 1000/ µl and 2,27 1000/ µl | highly lipophilic | 50 to 200 ng/mL | above the adult target range; also recorded: well above the adult therapeutic range | 1,77 1000/ µl and 1,65 1000/ µl and 1,39 1000/ µl | –

Row | Structure (SMILES) | < 10% RID [1] | concentration at 6 months (infant age) [3] | concentration at 1 month (infant age) ([3]; human three) | RID (relative infant dose) [1, 9] | RID (relative infant dose) [1, 10] | concentration at 1 month (infant age) [2, 11] | concentration at 6 months (infant age) [2, 12] | Infant serum level, in words [2] | concentration at 4 months (infant age) ([3]; human two) | Neutro_abs (absolute neutrophil count) (HEU breastfed infants; 1 month) | Neutro_abs (absolute neutrophil count) (HEU breastfed infants; 4 months) | Neutro_abs (absolute neutrophil count) (HEU breastfed infants; 6 months) | Neutro_abs (absolute neutrophil count) (HEU breastfed infants; [8]) | Lipophilicity [6] | Adult trough level [7] | Maternal serum level, in words [4] | Neutro_abs (absolute neutrophil count) (HEU breastfed infants; 18 months) | further results
4 | CC(C)CN(C[C@@H](O)[C@H](Cc1ccccc1)NC(=O)O[C@H]1CO[C@H]2OCC[C@H]21)S(=O)(=O)c1ccc(N)cc1 [DRV, darunavir] | < 380 ng/mL | < 0.25 µg/mL | < 0.25 µg/mL | – | – | – | – | below detectable levels | < 0.25 µg/mL | 0,69 1000/ µl | 0,64 1000/ µl | 1,15 1000/ µl | 1,16 1000/ µl | lipophilic | – | – | – | concentration at 14 days (infant age) ([2]; in vivo, breastfed infant (entry one), read-out: ART level in infant serum (IS)): < 0.05 µg/mL; concentration at 4 months (infant age) ([2]; in vivo, breastfed infant (entry three), read-out: ART level in infant serum (IS)): < 0.05 µg/mL; concentration at 1 month (infant age) ([4]; female, human, in vivo, 1 month of age, read-out: ART level in maternal serum (MS)): 3.8 µg/mL; concentration at 4 months (infant age) ([4]; female, human, in vivo, 4 months of age, read-out: ART level in maternal serum (MS)): 4.13 µg/mL; concentration at 6 months (infant age) ([4]; female, human, in vivo, 6 months of age, read-out: ART level in maternal serum (MS)): 3.37 µg/mL; Plasma protein binding [5]: high
5 | Cc1nnc(C(=O)NC(C)(C)c2nc(C(=O)NCc3ccc(F)cc3)c(O)c(=O)n2C)o1 [RAL, raltegravir] | < 55 ng/mL | – | – | – | – | – | – | below the detectable range | – | 1,32 1000/ µl | – | – | 2,74 1000/ µl | moderately lipophilic | – | – | 3,35 1000/ µl | concentration at 1 month (infant age) ([2]; in vivo): < 0.075 µg/mL; concentration at 4 months (infant age) ([2]; in vivo): < 0.075 µg/mL; concentration at 14 days (infant age) ([2]; in vivo): < 0.075 µg/mL; concentration at 1 month (infant age) ([3]; female, human, 1 month of age): 0.293 µg/mL; concentration at 4 months (infant age) ([3]; female, human, 4 months of age): 0.168 µg/mL; concentration at 14 days (infant age) ([3]; female, human, 14 days of age): 1.76 µg/mL; concentration at 1 month (infant age) ([4]; female, human, in vivo): 0.872 µg/mL; concentration at 4 months (infant age) ([4]; female, human, in vivo): 0.184 µg/mL; concentration at 14 days (infant age) ([4]; female, human, serum, oral, 14 days of age, timing of intake and sampling not standardized, read-out: ART level in maternal serum (MS)): < 0.075 µg/mL
